Reference: article PMC8591201, “Anti-Tumor Activity of AZD4547 Against NTRK1 Fusion Positive Cancer Cells Through Inhibition of NTRKs” (Frontiers in Oncology, 2021)

Columns and labels:
Assay in all cases: cells
Parameters in all cases: Anti-proliferation, 10-point dose response, CellTiter-Glo luminescence (MTT stated for KM12(Luc)), GI50 fitted in Prism
8505C = settings: Homo sapiens, 8505C, 72 h, read-out: GI50 (µM) a
Method: (§1) To obtain the GI50 value of a substance, cell viability was measured using MTT (G4000, Promega, USA) for KM12(Luc) cell and Cell titer glo (G7572, Promega, USA) for other cell lines. For adherent cells, cells were seeded at 5,000 cells/well in a 96-well plate and treated with a substance one day after cell seeding. For suspension cells, 10,000 cells/well were seeded and the substance was treated after 4 h stabilization of cells. The substance was treated at 10 points of 1:3 serial dilution (0–100 µmol/L) for 72 h. For MTT assay, 15 µL dye solution was added to each well and incubated 4 h at 37°C. 100 µL of solubilization solution was added and followed 1 hr incubation. Absorbance at 570 nm of each well was recorded using EnVision microplate reader (Perkin Elmer). For Cell titer glo assay, Cell titer glo reagent was treated in each well and measured the luminescence by EnVision microplate reader (Perkin Elmer). Viable cells in each well were normalized by using 0.5% DMSO-treated wells (100%). The inhibitor dose−response curve was fitted and GI50 values were calculated using Prism 7.0 software (GraphPad). All assays were performed in duplicate and the standard deviation (SD) was determined from two independent experiments. KM12(Luc) was purchased from the JCRB cell bank. KM12 (Luc) was used within 6 months after purchase and the DNA profiles were confirmed using a short tandem repeat (STR) analysis by the Korean Cell Line Bank. KM12(Luc) cells were maintained in DMEM supplemented with 10% FBS and antibiotics. Parental Ba/F3 cells were purchased from DSMZ and were grown in RPMI1640 supplemented with 10% FBS and antibiotics in the presence of IL3, Transformed Ba/F3 cell lines were grown in the same media without IL3. Cells used in this study were negative for mycoplasma contamination. AN3-CA, HEC1A, U138, 8505C, MKN28, MKN45, A172, A375, Capan-1 HeLa, HEP3B, MCF-7 and MIA-paca-2 cells were maintained in DMEM (Welgene, Korea) supplemented with 10% FBS and antibiotics (Welgene, Korea). Otherwise, all cells were maintained in RPMI (Welgene, Korea) supplemented with 10% FBS and antibiotics (Welgene, Korea). To identify AZD4547 sensitive cell lines other than FGFR-mutant driven cancer cells, GI50 values were determined for AZD4547 against 64 different cancer cell lines, including AN3-CA used as a positive control ( Figure 1A and Table S1 ). […] Also, inhibitory activity of AZD4547 against DDR1 or FLT3 allows suppression of proliferation of U-2-OS and MV4-11 ([43]). Therefore, our attention focused on the inhibitory activity of AZD4547 against KM12(Luc) cell lines which have the TPM3-NTRK1 fusion gene. To exclude the possibility that the anti-proliferation activity of AZD4547 against KM12(Luc) is a common characteristic of FGFR inhibitors, we determined if BGJ398, a representative FGFR inhibitor, is also capable of suppressing proliferation of KM12(Luc) cells ( Figure 1B ).

C8161 = settings: Homo sapiens, C8161, 72 h, read-out: GI50 (µM) a
Method: as §1

DU-145 = settings: Homo sapiens, DU-145, 72 h, read-out: GI50 (µM) a
Method: as §1

HCC-78 = settings: Homo sapiens, HCC78, 72 h, read-out: GI50 (µM) a
Method: as §1

HEC1A = settings: Homo sapiens, HEC-1-A, 72 h, read-out: GI50 (µM) a
Method: as §1

HL-60 = settings: Homo sapiens, HL-60, 72 h, read-out: GI50 (µM) a
Method: as §1

K-562 = settings: Homo sapiens, K562, 72 h, read-out: GI50 (µM) a
Method: as §1

MKN28 = settings: Homo sapiens, MKN-28, 72 h, read-out: GI50 (µM) a
Method: as §1

PC-3 = settings: Homo sapiens, PC-3, 72 h, read-out: GI50 (µM) a
Method: as §1

RT-112 = settings: Homo sapiens, RT-112, 72 h, read-out: GI50 (µM) a
Method: as §1

SK-HEP-1 = settings: Homo sapiens, SK-HEP1, 72 h, read-out: GI50 (µM) a
Method: as §1

UMUC3 = settings: Homo sapiens, UMUC3, 72 h, read-out: GI50 (µM) a
Method: as §1

## COc1cc(CCc2cc(NC(=O)c3ccc(N4C[C@@H](C)N[C@@H](C)C4)cc3)n[nH]2)cc(OC)c1 [AZD4547]
8505C
  GI50: 14.7 µM
C8161
  GI50: 11.1 µM
DU-145
  GI50: 10.7 µM
HCC-78
  GI50: 7.17 µM
HEC1A
  GI50: 35.6 µM
HL-60
  GI50: 9.31 µM
K-562
  GI50: 17.1 µM
MKN28
  GI50: 10.9 µM
PC-3
  GI50: 10.6 µM
RT-112
  GI50: 0.42 µM
SK-HEP-1
  GI50: 12.6 µM
UMUC3
  GI50: 46.3 µM
